Source: US20030096264A1, “Multi-parameter high throughput screening assays (MPHTS)” (Psychiatric Genomics, Inc., priority 2001, published 2003)

Tested on: rat hippocampus
Experiment: In vivo expression profile in hippocampus of rats treated with valproate
Conditions: three weeks
Procedure: Specifically, in these experiments rats were treated with valproate, and gene expression levels in the hippocampus of each rat were measured for a plurality of different genes.
In more detail, twenty rats were divided into two groups, containing ten individuals each. One group of ten rats was used as the control group, whereas the other group functioned as the experimental group. Each rat in the experimental group was injected twice daily with 250 mg valproate for each kilogram of the rat's body mass. Each rat in the control group was similarly injected, but with a vehicle that contained no active ingredient. After three weeks dosing, the rats were sacrificed and their brains removed. Each rat's brain was divided in half. The hippocampus was then removed from each half and flash frozen. The half hippocampus tissue from the rats in each group was combined and total RNA was extracted from the tissue using TriReagent (Invitrogen Corp., Carlsbad Calif.) following the manufacturer's instructions. mRNA was purified with Oligotext (Qiagen Inc., Valencia Calif.) following the manufacturer's recommended protocol. mRNA quality and concentration was determined using the Agilent Bioanalyzer.
For expression profile analysis, mRNA from the pooled tissues of the control group was measured with Cy3 dye, and mRNA from the pooled tissues of the experimental group was measured with Cy5 dye. The labeled probes were then mixed and hybridized to a Rat Tox3 microarray (Incyte Genomics, Palo Alto Calif.). The relative signal intensity from each fluorescent dye was measured for each element (i.e., for each “gene”) on the microarray, normalized for differences, and the relative difference in expression level determined.
The relative differences in expression levels for various genes are plotted in FIG. 4. Specifically, each point on the plot represents a gene whose expression level was measured in both the experimental and control groups. Each point's position along the horizontal axis indicates the relative Cy3 signal intensity measured for that gene and reflects, therefore, the gene's expression in rats that were not treated with valproate. A point's position along the vertical axis indicates the relative Cy5 signal intensity measured for the corresponding gene, reflecting the gene's expression in the hippocampus of rats that were treated with valproate. […] By contrast, changes by at least a factor of 1.5 (i.e., θ≧1.5) indicate significant changes in expression in response to the valproate treatment (identified using a Rat Toxicology array from Incyte, Palo Alto, Calif.). These genes are listed in Table 5, below, along with GenBank Accession number for those genes. Again, a cDNA sequence for each gene listed in Table 5 is also provided in the accompanying Sequence Listing, and its sequence identifier is specified in Table 5 along with the GenBank Accession number.

CCCC(CCC)C(=O)O [valproate]
Φ: pol polyprotein (250 mg/kg twice daily, AAC31805 SEQ ID NO: 85): 1.9
Φ: CGI-83 protein (250 mg/kg twice daily, AAD34078 SEQ ID NO: 89): 1.9
Φ: CGI-86 protein (250 mg/kg twice daily, AAD34081 SEQ ID NO: 88): 1.9
Φ: Rat RT1-DOb gene, partial cds. (250 mg/kg twice daily, AB008110 SEQ ID NO: 63): 2.4
Φ: Mouse BAC-146N21 Chromosome X contains iduronate-2-sulfatase gene; complete sequence. (250 mg/kg twice daily, AC002315 SEQ ID NO: 96): 1.8
Φ: Mouse chromosome unknown clone rp21-657p21 strain 129S6/SvEvTac, complete sequence. (250 mg/kg twice daily, AC005743 SEQ ID NO: 62): 2.5
Φ: Mouse chromosome 18 clone mgsriii-pl-3084 strain RIII Fibroblast cell line C 127, complete sequence. (250 mg/kg twice daily, AC007665 SEQ ID NO: 75): 2.1
Φ: Mouse chromosome 10, clone RP21-247L16, complete sequence. (250 mg/kg twice daily, AC012302 SEQ ID NO: 87): 1.9
Φ: Mouse chromosome 18 clone RP23-16108, complete sequence. (250 mg/kg twice daily, AC020967 SEQ ID NO: 57): 3.1
Φ: Mouse TCR beta locus from bases 250554 to 501917 (section 2 of 3) of the complete sequence. (250 mg/kg twice daily, AE000664 SEQ ID NO: 58): 2.8
Φ: Mouse TCR beta locus from bases 250554 to 501917 (section 2 of 3) of the complete sequence. (250 mg/kg twice daily, AE000664 SEQ ID NO: 61): 2.5
Φ: Mouse TCR beta locus from bases 250554 to 501917 (section 2 of 3) of the complete sequence. (250 mg/kg twice daily, AE000664 SEQ ID NO: 79): 2
Φ: Rat strain Long Evans shaker myelin basic protein (Mbp) gene, intron 3, interrupted by ETn retrotransposon. (250 mg/kg twice daily, AF076337 SEQ ID NO: 65): 2.3
Φ: Mouse LDL receptor member LR3 mRNA, complete cds. (250 mg/kg twice daily, AF077847 SEQ ID NO: 70): 2.2
Φ: Mouse MHC class III region RD gene, partial eds; Bf, C2, G9A, NG22, G9, HSP70, HSP70, HSC70t, and smRNP genes, complete cds; G7A gene, partial cds; and unknown genes. (250 mg/kg twice daily, AF109906 SEQ ID NO: 86): 1.9
Φ: Mouse chromosome X clone BAC B22804, complete sequence. (250 mg/kg twice daily, AF121351 SEQ ID NO: 71): 2.2
Φ: Mouse (Mus musculus domesticus) X chromosome region similar to Human DXS963E, complete sequence. (250 mg/kg twice daily, AF130357 SEQ ID NO: 97): 1.8
Φ: Rat cytosolic branch chain aminotransferase BCATc mRNA, partial cds. (250 mg/kg twice daily, AF 165887 SEQ ID NO: 111): −1.5
Φ: Rat calmodulin mRNA, complete cds. (250 mg/kg twice daily, AF178845 SEQ ID NO: 102): −1.6
Φ: Mouse Naip3 gene, exon 1; neuronal apoptosis inhibitory protein 1 (Naip 1) and general transcription factor IIH polypeptide 2 (Gtf2h2) genes, complete cds. (250 mg/kg twice daily, AF242432 SEQ ID NO: 80): 2
Φ: Mouse BAC 171m12 MESDC1 (Mesdc1) and MESDC2 (Mesdc2) genes, complete cds. (250 mg/kg twice daily, AF311213 SEQ ID NO: 67): 2.3
Φ: Rat gene encoding tyrosine aminotransferase. (250 mg/kg twice daily, AJ010709 SEQ ID NO: 93): 1.8
Φ: Rat mRNA for Sulfotransferase K2. (250 mg/kg twice daily, AJ238392 SEQ ID NO: 77): 2
Φ: unnamed protein product (250 mg/kg twice daily, BAB15010 SEQ ID NO: 90): 1.8
Φ: hypothetical protein (250 mg/kg twice daily, CAB70864 SEQ ID NO: 117): −1.5
Φ: Rat mRNA for histamine N-methyltransferase, complete cds. (250 mg/kg twice daily, D10693 SEQ ID NO: 72): 2.1
Φ: Rat mRNA for delta-4-3-ketosteroid 5-beta-reductase, complete cds. (250 mg/kg twice daily, D17309 SEQ ID NO: 68): 2.2
Φ: Rat mRNA for 14-3-3 protein theta-subtype, complete cds. (250 mg/kg twice daily, D17614 SEQ ID NO: 109): −1.5
Φ: Mouse mRNA for plexin 2, complete cds. (250 mg/kg twice daily, D86949 SEQ ID NO: 95): 1.8
Φ: Rat clathrin heavy chain mRNA, complete cds. (250 mg/kg twice daily, J03583 SEQ ID NO: 112): −1.5
Φ: rat myelin basic protein (mbp) gene mrna. (250 mg/kg twice daily, K00512 SEQ ID NO: 99): −1.6
Φ: Rat long terminal repeat DNA sequence. (250 mg/kg twice daily, L19707 SEQ ID NO: 73): 2.1
Φ: Rat stress activated protein kinase alpha I mRNA, complete cds. (250 mg/kg twice daily, L27111 SEQ ID NO: 105): −1.5
Φ: Murine phosphoprotein phosphatase mRNA, complete cds. (250 mg/kg twice daily, M8 1475 SEQ ID NO: 114): −1.5
Φ: Mouse myelin proteolipid protein mRNA, complete cds. (250 mg/kg twice daily, M15442 SEQ ID NO: 103): −1.6
Φ: Rat nuclear-encoded mitochondrial ATP synthase beta-subunit mRNA, 5′ end. (250 mg/kg twice daily, M25301 SEQ ID NO: 107): −1.5
Φ: Rat calcincurin A mRNA, complete cds. (250 mg/kg twice daily, M29275 SEQ ID NO: 98): −1.7
Φ: Rat senescence marker protein 2B gene, exons 1 and 2. (250 mg/kg twice daily, M29302 SEQ ID NO: 81): 1.9
Φ: Rat thymosin beta-4 mRNA, complete cds. (250 mg/kg twice daily, M34043 SEQ ID NO: 104): −1.5
Φ: Rat cytochrome P450 IV A1 (CYP4A1) gene, complete cds. (250 mg/kg twice daily, M57718 SEQ ID NO: 64): 2.4
Φ: Rat (LxRN3) LINE 1 repeat element, ORF II. (250 mg/kg twice daily, M60824 SEQ ID NO: 66): 2.3
Φ: Rat (clone pRHx1) hemopexin mRNA, complete cds. (250 mg/kg twice daily, M62642 SEQ ID NO: 84): 1.9
Φ: Rat 3-alpha-hydroxysteroid dehydrogenase (3-alpha-HSD) mRNA, complete cds. (250 mg/kg twice daily, M64393 SEQ ID NO: 69): 2.2
Φ: Rat kallikrein-binding protein (RKBP) gene. (250 mg/kg twice daily, M67496 SEQ ID NO: 74): 2.1
Φ: {clone 6B1, intracisternal A-particle derived LTR fragment} [rats, Genomic, 208 nt]. (250 mg/kg twice daily, S51653 SEQ ID NO: 76): 2.1
Φ: {clone E512, estrogen induced gene} [rats, Sprague-Dawley, hypothalamus, mRNA Partial, 259 nt]. (250 mg/kg twice daily, S74327 SEQ ID NO: 118): −1.5
Φ: Rat Sprague-Dawley UDP-glucuronosyltransferase (UGT2B12) mRNA, complete cds. (250 mg/kg twice daily, U06273 SEQ ID NO: 59): 2.7
Φ: Rat LEW/N clone D0N544 satellite DNA sequence. (250 mg/kg twice daily, U06685 SEQ ID NO: 82): 1.9
Φ: Rat Eker rat-associated intracisternal-A-particle element. (250 mg/kg twice daily, U23776 SEQ ID NO: 83): 1.9
Φ: Rat Eker rat-associated intracisternal-A-particle element. (250 mg/kg twice daily, U23776 SEQ ID NO: 94): 1.8
Φ: Rat protein kinase C-binding protein NELL2 mRNA, complete cds. (250 mg/kg twice daily, U48245 SEQ ID NO: 106): −1.5
Φ: Mouse hippocampal amyloid precursor protein mRNA, complete cds. (250 mg/kg twice daily, U84012 SEQ ID NO: 116): −1.5
Φ: Rat mRNA for amyloidogenic glycoprotein (rAG), cognate of Human A4 amyloid precursor protein. (250 mg/kg twice daily, X07648 SEQ ID NO: 101): −1.6
Φ: Rat CaMII gene, exon 1 (and joined cds). (250 mg/kg twice daily, X13833 SEQ ID NO: 113): −1.5
Φ: Rat mRNA for Mx3 protein. (250 mg/kg twice daily, X52713 SEQ ID NO: 78): 2
Φ: Mouse rac1 gene. (250 mg/kg twice daily, X57277 SEQ ID NO: 115): −1.5
Φ: Rat mRNA for cdc2 promoter region. (250 mg/kg twice daily, X60767 SEQ ID NO: 92): 1.8
Φ: Rat L1 retroposon/pseudogene; 3′ flank. (250 mg/kg twice daily, X61298 SEQ ID NO: 60): 2.6
Φ: Rat mRNA for ubiquitin and ribosomal protein S27a. (250 mg/kg twice daily, X81839 SEQ ID NO: 108): −1.5
Φ: Rat MAL protein gene and mRNA. (250 mg/kg twice daily, X82557 SEQ ID NO: 110): −1.5
Φ: Rat mRNA for Myelin-associated/Oligodendrocytic Basic Protein-81. (250 mg/kg twice daily, X87900 SEQ ID NO: 100): −1.6
Φ: Rat mRNA for Tsx gene. (250 mg/kg twice daily, X99797 SEQ ID NO: 91): 1.8
Φ: Rat L1 retrotransposon mlvi2-rn14, 5′UTR and putative RNA binding protein 1 gene, partial cds. (250 mg/kg valproate twice daily, vs vehicle, U87602 SEQ ID NO: 56): 3.6
